Paper PMC3694297, “Establishment of a simplified in vitro porcine blood–brain barrier model with high transendothelial electrical resistance” (Brain Research, 2013)

How the values were obtained:
[1] = tested on: cEND (an immortalised mouse brain endothelial cell line); parameters: method as in Förster et al. (2005); settings: cEND cells treated with hydrocortisone; ref Förster et al. (2005); cited from earlier work
[2] = tested on: hCMEC/D3, immortalised human brain microvascular endothelial cells; parameters: method as in Förster et al., 2008; settings: hCMEC/D3 treated with hydrocortisone; ref Förster et al., 2008; cited from earlier work
[3] = tested on: porcine brain endothelial cells (PBECs); settings: apical to basal, P.1 PBEC; line through passive compounds R^2=0.96
Procedure: Permeability assays were performed on cell monolayers with TEER >500 Ω cm^2. […] At t=5 min, the inserts were transferred to the next well containing donor buffer. This procedure was repeated for all inserts at t=15 min and t=30 min. At the end of the experiment, samples were taken from each insert and well to scintillation vials. OptiPhase HiSafe 2 scintillation liquid was added to each vial and radioactivity was counted using a Canberra Packard Tricarb 1900 TR Liquid Scintillation Analyser.
Cleared volume was calculated using the following equation and plotted as a function of time:(1) Clearedvolume(μl)=MR(dpm)/CD(dpm/μl) where is the MR=amount of radio-labelled compound in the receiver compartment, dpm=disintegrations per minute, CD=concentration of the compound in the donor compartment.
All dpm values were corrected for background dpm. The slope of the clearance curve was obtained by linear regression and represents the PS (i.e. permeability × surface area) product. Apparent permeability (Papp, cm/s) was calculated using the following equation:(2) Papp(cm/s)=PSproduct(cm^3/s)/surfaceareaoftheinsert(cm^2)
The apparent permeability Papp was calculated according to Eq. (2) and plotted against the calculated Log Poctanol as a measure of lipophilicity of the compound.

Structure (SMILES) | Papp relative to the line of Papp vs. calculated Log Poctanol [3] | other results
C[C@]12CCC(=O)C=C1CC[C@@H]1[C@@H]2[C@@H](O)C[C@@]2(C)[C@H]1CC[C@]2(O)C(=O)CO [hydrocortisone] | – | increase in TEER [1]: threefold; increase in TEER [2]: three-fold; increase in expression of occludin and claudin-5 [2]: over twofold
N[C@@H](CCC(=O)O)C(=O)O [glutamate, L-glutamic acid] | clear outliers below the line | –
CC(C)NCC(O)COc1cccc2ccccc12 (stereo not drawn) [propranolol] | linear function of calculated Log Poctanol | –
C=CCN1CC[C@]23c4c5ccc(O)c4O[C@H]2C(=O)CC[C@@]3(O)[C@H]1C5 [naloxone] | linear function of calculated Log Poctanol | –
Cn1c(=O)c2c(ncn2C)n(C)c1=O [caffeine] | clear outliers above the line | –
CC(C)C[C@H](N)C(=O)O [Leucine, L-leucine] | clear outliers above the line | –
CC[C@]1(O)C[C@@H]2CN(CCc3c([nH]c4ccccc34)[C@@](C(=O)OC)(c3cc4c(cc3OC)N(C)[C@H]3[C@@](O)(C(=O)OC)[C@H](OC(C)=O)[C@]5(CC)C=CCN6CC[C@]43[C@@H]65)C2)C1 [vinblastine] | clear outliers below the line | –
